Laboratory results published in US9598440B2, “Inhibitors of IRAK4 activity” (MERCK SHARP & DOHME CORP., priority 2012, dated 2017).

biological target: IRAK4 (Homo sapiens (Human), UniProt Q9NWZ3); assay: Determination of IRAK4 kinase activity (IMAP fluorescence polarization, phosphorylation of fluorescent peptide substrate); type: biochemical; conditions: 0.5 nM GST tagged IRAK4, 100 nM peptide substrate RP7030, 100 μM ATP, 30 minutes at 25° C.
Description: The kinase activity of IRAK4 is determined by its ability to catalyze the phosphorylation of a fluorescent polypeptide substrate. The extent of phosphorylation is measured using IMAP technology (Molecular Devices) where the phosphorylated fluorescent substrate binds to the large M(III)-based nanoparticles which reduces the rotational speed of the substrate and thus increases its fluorescent polarization (FP).
Procedure: A 20 μl reaction mixture contains 10 mM TriHCl, pH 7.2, 0.5 nM GST tagged IRAK4 (SignalChem), 100 nM fluorescent peptide substrate (RP7030, Molecular Devices), 100 μM ATP, 1 mM DTT, 1 mM MgCl2, and 0.01% Tween 20. The reaction is initiated by the addition of ATP. After incubation for 30 minutes at 25° C., 60 μl of Progressive IMAP Reagent (Molecular Devices) is added to stop the reaction. Change in RP7030's FP is determined by a FP reader (Analyst HT, LJL BioSystems). Analytical LCMS Conditions: • Condition A: Phenomenex Luna C18 (4.6×250 mm), 95:5 to 5:95 water:MeCN (0.05% TFA), over 10 min, hold 6 min. • Condition B: Agilent SBC (3.0×50 mm), solvent A: H20-0.1% TFA; • solvent B: ACN-0.1% TFA; GRADIENT TABLE: 0 min:10% B, 0.3 min: 10% B, 1.5 min: 95% B, 2.70 min: 95% B, 2.76 min: 10% B, stop time 3.60 min.

Sequence of IRAK4 (Q9NWZ3 whole entry): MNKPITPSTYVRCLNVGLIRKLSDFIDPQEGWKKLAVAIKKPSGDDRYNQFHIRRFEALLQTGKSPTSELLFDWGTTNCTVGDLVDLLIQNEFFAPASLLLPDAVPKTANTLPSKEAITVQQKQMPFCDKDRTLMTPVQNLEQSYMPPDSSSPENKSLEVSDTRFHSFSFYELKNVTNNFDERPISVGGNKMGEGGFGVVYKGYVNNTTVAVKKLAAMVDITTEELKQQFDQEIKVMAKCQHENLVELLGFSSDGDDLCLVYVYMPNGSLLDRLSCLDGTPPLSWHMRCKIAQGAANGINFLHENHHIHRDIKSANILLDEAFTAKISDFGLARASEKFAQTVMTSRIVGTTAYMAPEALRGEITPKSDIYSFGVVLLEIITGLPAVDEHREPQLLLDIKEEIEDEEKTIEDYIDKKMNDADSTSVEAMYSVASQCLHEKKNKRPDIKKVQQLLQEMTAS

| IC50 [nM] | SMILES |
| --- | --- |
| 4.8 | OC[C@H]1C[C@@H](Nc2nc(Nc3cncnc3)ncc2-c2nc3ccccc3s2)[C@H](O)[C@@H]1O [Example 26, (1R,2S,3R,5R)-3-((5-(benzo[d]thiazol-2-yl)-2-(pyrimidin-5-ylamino)pyrimidin-4-yl)amino)-5-(hydroxymethyl)cyclopentane-1,2-diol] |
| 5.3 | NC(=O)c1cccc(Nc2ncc(-c3nc4ccccc4s3)c(N[C@@H]3C[C@H](CO)[C@@H](O)[C@H]3O)n2)c1 [Example 27, 3-((5-(benzo[d]thiazol-2-yl)-4-(((1R,2S,3R,4R)-2,3-dihydroxy-4-(hydroxymethyl)cyclopentyl)amino)pyrimidin-2-yl)amino)benzamide] |
| 10 | NC(=O)Cc1ccc(Nc2ncc(-c3nc4ccccc4s3)c(N[C@@H]3C[C@H](CO)[C@@H](O)[C@H]3O)n2)cc1 [Example 29, 2-(4-((5-(benzo[d]thiazol-2-yl)-4-(((1R,2S,3R,4R)-2,3-dihydroxy-4-(hydroxymethyl)cyclopentyl)amino)pyrimidin-2-yl)amino)phenyl)acetamide] |
| 44 | OC[C@H]1C[C@@H](Nc2nc(Nc3ccncc3F)ncc2-c2nc3ccccc3s2)[C@H](O)[C@@H]1O [Example 30, (1R,2S,3R,5R)-3-((5-(benzo[d]thiazol-2-yl)-2-((3-fluoropyridin-4-yl)amino)pyrimidin-4-yl)amino)-5-(hydroxymethyl)cyclopentane-1,2-diol] |
| 1.2 | Cc1cc(Nc2ncc(-c3nc4ccccc4s3)c(N[C@@H]3C[C@H](CO)[C@@H](O)[C@H]3O)n2)ccn1 [Example 31, (1R,2S,3R,5R)-3-((5-(benzo[d]thiazol-2-yl)-2-((2-methylpyridin-4-yl)amino)pyrimidin-4-yl)amino)-5-(hydroxymethyl)cyclopentane-1,2-diol] |
| 496 | OC[C@H]1C[C@@H](Nc2nc(NC3CCCC3)ncc2-c2nc3ccccc3s2)[C@H](O)[C@@H]1O [Example 33, (1R,2S,3R,5R)-3-((5-(benzo[d]thiazol-2-yl)-2-(cyclopentylamino)pyrimidin-4-yl)amino)-5-(hydroxymethyl)cyclopentane-1,2-diol] |
| 12 | CN(C)c1ccc(Nc2ncc(-c3nc4ccccc4s3)c(N[C@@H]3C[C@H](CO)[C@@H](O)[C@H]3O)n2)cc1 [Example 34, (1R,2S,3R,5R)-3-((5-(benzo[d]thiazol-2-yl)-2-((4-(dimethylamino)phenyl)amino)pyrimidin-4-yl)amino)-5-(hydroxymethyl)cyclopentane-1,2-diol] |
| 10 | Cc1cc(C)cc(Nc2ncc(-c3nc4ccccc4s3)c(N[C@@H]3C[C@H](CO)[C@@H](O)[C@H]3O)n2)c1 [Example 35, (1R,2S,3R,5R)-3-((5-(benzo[d]thiazol-2-yl)-2-((3,5-dimethylphenyl)amino)pyrimidin-4-yl)amino)-5-(hydroxymethyl)cyclopentane-1,2-diol] |
| 470 | COc1cccc([C@@H](C)Nc2ncc(-c3nc4ccccc4s3)c(N[C@@H]3C[C@H](CO)[C@@H](O)[C@H]3O)n2)c1 [Example 36, (1R,2S,3R,5R)-3-((5-(benzo[d]thiazol-2-yl)-2-(((R)-1-(3-methoxyphenyl)ethyl)amino)pyrimidin-4-yl)amino)-5-(hydroxymethyl)cyclopentane-1,2-diol] |
| 10 | OC[C@H]1C[C@@H](Nc2nc(Nc3cccnc3)ncc2-c2nc3ccccc3s2)[C@H](O)[C@@H]1O [Example 37, (1R,2S,3R,5R)-3-((5-(benzo[d]thiazol-2-yl)-2-(pyridin-3-ylamino)pyrimidin-4-yl)amino)-5-(hydroxymethyl)cyclopentane-1,2-diol] |
| 623 | Nc1ncc(-c2ccccn2)c(N[C@@H]2C[C@H](CO)[C@@H](O)[C@H]2O)n1 [Example 38, (1R,2S,3R,5R)-3-((2-amino-5-(pyridin-2-yl)pyrimidin-4-yl)amino)-5-(hydroxymethyl)cyclopentane-1,2-diol] |
| 8.9 | CN(C)c1cccc(Nc2ncc(-c3nc4ccccc4s3)c(N[C@@H]3C[C@H](CO)[C@@H](O)[C@H]3O)n2)c1 [Example 39, (1R,2S,3R,5R)-3-((5-(benzo[d]thiazol-2-yl)-2-((3-(dimethylamino)phenyl)amino)pyrimidin-4-yl)amino)-5-(hydroxymethyl)cyclopentane-1,2-diol] |
| 64 | Cc1cc(Nc2ncc(-c3cncs3)c(N[C@@H]3C[C@H](CO)[C@@H](O)[C@H]3O)n2)cc(C)n1 [Example 40, (1R,2S,3R,5R)-3-((2-((2,6-dimethylpyridin-4-yl)amino)-5-(thiazol-5-yl)pyrimidin-4-yl)amino)-5-(hydroxymethyl)cyclopentane-1,2-diol] |
| 7.9 | Cc1cc(Nc2ncc(-c3cscn3)c(N[C@@H]3C[C@H](CO)[C@@H](O)[C@H]3O)n2)cc(C)n1 [Example 41, (1R,2S,3R,5R)-3-((2-((2,6-dimethylpyridin-4-yl)amino)-5-(thiazol-4-yl)pyrimidin-4-yl)amino)-5-(hydroxymethyl)cyclopentane-1,2-diol] |
| 552 | OC[C@H]1C[C@@H](Nc2nc(Nc3ccc(OC(F)(F)F)cc3)ncc2-c2nc3ccccc3s2)[C@H](O)[C@@H]1O [Example 42, (1R,2S,3R,5R)-3-((5-(benzo[d]thiazol-2-yl)-2-((4-(trifluoromethoxy)phenyl)amino)pyrimidin-4-yl)amino)-5-(hydroxymethyl)cyclopentane-1,2-diol] |
| 8.2 | COc1ccc(Nc2ncc(-c3nc4ccccc4s3)c(N[C@@H]3C[C@H](CO)[C@@H](O)[C@H]3O)n2)cn1 [Example 43, (1R,2S,3R,5R)-3-((5-(benzo[d]thiazol-2-yl)-2-((6-methoxypyridin-3-yl)amino)pyrimidin-4-yl)amino)-5-(hydroxymethyl)cyclopentane-1,2-diol] |
| 3 | CN1CCN(c2ccc(Nc3ncc(-c4nc5ccccc5s4)c(N[C@@H]4C[C@H](CO)[C@@H](O)[C@H]4O)n3)cc2)CC1 [Example 44, (1R,2S,3R,5R)-3-((5-(benzo[d]thiazol-2-yl)-2-((4-(4-methylpiperazin-1-yl)phenyl)amino)pyrimidin-4-yl)amino)-5-(hydroxymethyl)cyclopentane-1,2-diol] |
| 2.6 | CN1CCN(c2cccc(Nc3ncc(-c4nc5ccccc5s4)c(N[C@@H]4C[C@H](CO)[C@@H](O)[C@H]4O)n3)c2)CC1 [Example 45, (1R,2S,3R,5R)-3-((5-(benzo[d]thiazol-2-yl)-2-((3-(4-methylpiperazin-1-yl)phenyl)amino)pyrimidin-4-yl)amino)-5-(hydroxymethyl)cyclopentane-1,2-diol] |
| 1610 | Nc1ncc(-c2cc3ccccc3s2)c(N[C@@H]2C[C@H](CO)[C@@H](O)[C@H]2O)n1 [Example 46, (1R,2S,3R,5R)-3-((2-amino-5-(benzo[b]thiophen-2-yl)pyrimidin-4-yl)amino)-5-(hydroxymethyl)cyclopentane-1,2-diol] |
| 6.5 | OC[C@H]1C[C@@H](Nc2nc(Nc3ccc4[nH]ncc4c3)ncc2-c2nc3ccccc3s2)[C@H](O)[C@@H]1O [Example 50, (1R,2S,3R,5R)-3-((2-((1H-indazol-5-yl)amino)-5-(benzo[d]thiazol-2-yl)pyrimidin-4-yl)amino)-5-(hydroxymethyl)cyclopentane-1,2-diol] |
| 687 | OC[C@H]1C[C@@H](Nc2nc(NC3CCNCC3)ncc2-c2nc3ccccc3s2)[C@H](O)[C@@H]1O [Example 52, (1R,2S,3R,5R)-3-((5-(benzo[d]thiazol-2-yl)-2-(piperidin-4-ylamino)pyrimidin-4-yl)amino)-5-(hydroxymethyl)cyclopentane-1,2-diol] |
| 2650 | CN1CCC(Nc2ncc(-c3nc4ccccc4s3)c(N[C@@H]3C[C@H](CO)[C@@H](O)[C@H]3O)n2)CC1 [Example 53, (1R,2S,3R,5R)-3-((5-(benzo[d]thiazol-2-yl)-2-((1-methylpiperidin-4-yl)amino)pyrimidin-4-yl)amino)-5-(hydroxymethyl)cyclopentane-1,2-diol] |
| 736 | OC[C@H]1C[C@@H](Nc2nc(NC3CNC3)ncc2-c2nc3ccccc3s2)[C@H](O)[C@@H]1O [Example 54, (1R,2S,3R,5R)-3-((2-(azetidin-3-ylamino)-5-(benzo[d]thiazol-2-yl)pyrimidin-4-yl)amino)-5-(hydroxymethyl)cyclopentane-1,2-diol] |
| 483 | OC[C@H]1C[C@@H](Nc2nc(NC3CCC3)ncc2-c2ccc3ccccc3n2)[C@H](O)[C@@H]1O [Example 56, 2-(cyclobutylamino)-6-(((1R,2S,3R,4R)-2,3-dihydroxy-4-(hydroxymethyl)cyclopentyl)amino)-5-(quinolin-2-yl)pyrimidine] |
| 10600 | OC[C@H]1C[C@@H](Nc2nc(NC3COC3)ncc2-c2ccc3ccccc3n2)[C@H](O)[C@@H]1O [Example 57, 6-(((1R,2S,3R,4R)-2,3-dihydroxy-4-(hydroxymethyl)cyclopentyl)amino)-2-(oxetan-3-ylamino)-5-(quinolin-2-yl)pyrimidine] |
| 8 | COc1cc(Nc2ncc(-c3ccc4ccccc4n3)c(N[C@@H]3C[C@H](CO)[C@@H](O)[C@H]3O)n2)ccn1 [Example 58, 6-(((1R,2S,3R,4R)-2,3-dihydroxy-4-(hydroxymethyl)cyclopentyl)amino)-2-((2-methoxypyridin-4-yl)amino)-5-(quinolin-2-yl)pyrimidine] |
